In the NIST ThermoML archive (doi:10.1021/je030191w):

Experiments:
[1] = 101 kPa, Liquid
[2] = xn = mol fraction of the nth substance listed; details: 101 kPa, Liquid, x1 = 1

CCn1cc[n+](C)c1.F[B-](F)(F)F [1-ethyl-3-methylimidazolium tetrafluoroborate]
[1]
Details | mass density [kg/m3] | viscosity [mPa·s]
293.15 K | 1340.7 | 45.29
298.15 K | 1336.7 | 37.19
303.15 K | 1332.9 | 31.36
308.15 K | 1329.6 | 25.56
313.15 K | 1325.9 | 21.54
318.15 K | 1322.2 | 18.84
323.15 K | 1319.5 | 15.9

O [water] + CCn1cc[n+](C)c1.F[B-](F)(F)F
[2]
Details | mass density [kg/m3] | viscosity [mPa·s]
293.15 K | – | 1.002
298.15 K | – | 0.89
303.15 K | – | 0.798
308.15 K | – | 0.719
313.15 K | – | 0.653
318.15 K | 990.1 | 0.599
323.15 K | 988 | 0.547
